{
  "source": "patent US4346076A",
  "about": "“Bis-tetrazoylmethyl substituted cephalosporin antibiotics” (Eli Lilly and Company, priority 1980, dated 1982)",
  "key": {"Pseudomonas aeruginosa": {"tested_on": "Pseudomonas aeruginosa", "assay": "in vitro antibacterial activity, agar dilution", "format": "cell-based", "excerpt": "(§1) The bis-tetrazol-thiomethyl substituted cephalosporins of this invention are broad spectrum antibiotics which inhibit the growth of both gram positive and gram negative microorganisms which are pathogenic to man and animals. […] The following Table 2 lists the minimum inhibitory concentrations of representative compounds of the invention.\n(§2) The data in TABLE 2 were obtained in the agar dilution test method using Mueller-Hinton agar containing two percent Supplement C (Difco). Serial two-fold dilutions were run with the highest concentration on test at 128 mcg/ml."}, "Klebsiella sp.": {"tested_on": "Klebsiella sp.", "assay": "in vitro antibacterial activity, agar dilution", "format": "cell-based", "excerpt": "as §1, §2"}, "[1]": {"tested_on": "Staphylococcus epidermidis", "assay": "in vitro antibacterial activity, agar dilution", "format": "cell-based", "excerpt": "as §1, §2"}, "Streptococcus pneumoniae": {"tested_on": "Streptococcus pneumoniae", "assay": "in vitro antibacterial activity, agar dilution", "format": "cell-based", "conditions": "strain PARK, read-out: Minimum Inhibitory Concentration", "excerpt": "as §1, §2"}, "[2]": {"tested_on": "Bordetella bronchoseptica", "assay": "in vitro antibacterial activity, agar dilution", "format": "cell-based", "conditions": "strain 16, read-out: Minimum Inhibitory Concentration", "excerpt": "as §1, §2"}, "Shigella sonnei": {"tested_on": "Shigella sonnei", "assay": "in vitro antibacterial activity, agar dilution", "format": "cell-based", "conditions": "strain N9, read-out: Minimum Inhibitory Concentration", "excerpt": "as §1, §2"}, "Citrobacter freundii": {"tested_on": "Citrobacter freundii", "assay": "in vitro antibacterial activity, agar dilution", "format": "cell-based", "conditions": "strain CF17, read-out: Minimum Inhibitory Concentration", "excerpt": "as §1, §2"}, "Haemophilus influenzae": {"tested_on": "Haemophilus influenzae", "assay": "in vitro antibacterial activity, agar dilution", "format": "cell-based", "excerpt": "as §1, §2"}, "Escherichia coli": {"tested_on": "Escherichia coli", "assay": "in vitro antibacterial activity, agar dilution", "format": "cell-based", "excerpt": "as §1, §2"}, "Streptococcus Group D": {"tested_on": "Streptococcus Group D", "assay": "in vitro antibacterial activity, agar dilution", "format": "cell-based", "conditions": "read-out: Minimum Inhibitory Concentration", "excerpt": "as §1, §2"}, "Proteus morganii": {"tested_on": "Proteus morganii", "assay": "in vitro antibacterial activity, agar dilution", "format": "cell-based", "conditions": "Morganella morganii; strain PR15; read-out: Minimum Inhibitory Concentration", "excerpt": "as §1, §2"}, "Enterobacter aerogenes": {"tested_on": "Enterobacter aerogenes", "assay": "in vitro antibacterial activity, agar dilution", "format": "cell-based", "conditions": "Klebsiella aerogenes, read-out: Minimum Inhibitory Concentration", "excerpt": "as §1, §2"}, "Staphylococcus aureus": {"tested_on": "Staphylococcus aureus", "assay": "in vitro antibacterial activity, agar dilution", "format": "cell-based", "excerpt": "as §1, §2"}, "Proteus rettgeri": {"tested_on": "Proteus rettgeri", "assay": "in vitro antibacterial activity, agar dilution", "format": "cell-based", "excerpt": "as §1, §2"}, "Proteus inconstans": {"tested_on": "Proteus inconstans", "assay": "in vitro antibacterial activity, agar dilution", "format": "cell-based", "conditions": "Providencia alcalifaciens, read-out: Minimum Inhibitory Concentration", "excerpt": "as §1, §2"}, "Serratia marcescens": {"tested_on": "Serratia marcescens", "assay": "in vitro antibacterial activity, agar dilution", "format": "cell-based", "excerpt": "as §1, §2"}, "Salmonella sp.": {"tested_on": "Salmonella sp.", "assay": "in vitro antibacterial activity, agar dilution", "format": "cell-based", "excerpt": "as §1, §2"}, "Streptococcus Group A": {"tested_on": "Streptococcus Group A", "assay": "in vitro antibacterial activity, agar dilution", "format": "cell-based", "conditions": "strain C203; read-out: Minimum Inhibitory Concentration", "excerpt": "as §1, §2"}, "Enterobacter cloacae": {"tested_on": "Enterobacter cloacae", "assay": "in vitro antibacterial activity, agar dilution", "format": "cell-based", "excerpt": "as §1, §2"}, "[3]": {"tested_on": "ampicillin-resistant Haemophilus influenzae", "assay": "treatment of ampicillin-resistant Haemophilus influenzae meningitis in infant rats", "format": "in vivo"}, "[4]": {"assay": "levels in cerebro-spinal fluid of rats", "format": "in vivo", "conditions": "20 mg/kg s.c."}, "Escherichia coli (EC14)": {"tested_on": "Escherichia coli (EC14)", "assay": "in vivo activity in infected mice", "conditions": "sc, doses at 1 and 5 hours post infection", "method": "(§3) Compound E (TABLE 2), a preferred compound of the invention, was administered to mice infected with various pathogens to determine the compound's effective dose (ED50). Listed below in TABLE 3 are the ED50 values determined with the indicated infectious organism. | ^1 Subcutaneous doses at 1 and 5 hours post infection"}, "[5]": {"tested_on": "Streptococcus pyogenes (C203)", "assay": "in vivo activity in infected mice", "conditions": "sc, doses at 1 and 5 hours post infection", "method": "as §3"}, "[6]": {"tested_on": "Serratia marcescens (SE3)", "assay": "in vivo activity in infected mice", "conditions": "sc, doses at 1 and 5 hours post infection", "method": "as §3"}, "[7]": {"tested_on": "Staphylococcus aureus (3055)", "assay": "in vivo activity in infected mice", "conditions": "sc, doses at 1 and 5 hours post infection", "method": "as §3"}, "Proteus vulgaris (PV2S)": {"tested_on": "Proteus vulgaris (PV2S)", "assay": "in vivo activity in infected mice", "conditions": "sc, doses at 1 and 5 hours post infection", "method": "as §3"}, "[8]": {"conditions": "read-out: Minimum Inhibitory Concentration"}},
  "note": "Where two headings read alike, the source gives them in different places.",
  "data": [
    {"smiles": "CO/N=C(\\C(=O)N[C@@H]1C(=O)N2C(C(=O)O)=C(CSc3nnnn3Cc3nnn[nH]3)CS[C@H]12)c1csc(N)n1", "note": "[Compound E, syn 7β-[α-methoximino-α-(2-amino-1,3-thiazol-4-yl)-acetamido]-3-[1-(1H-tetrazol-5-ylmethyl)-1H-tetrazol-5-ylthiomethyl]-3-cephem-4-carboxylic acid]", "values": [
      {"measurement": "MIC", "setting": "Pseudomonas aeruginosa; strain Ps18, read-out: Minimum Inhibitory Concentration", "value": 8, "unit": "mg/L"},
      {"measurement": "MIC", "setting": "Pseudomonas aeruginosa; strain X239, read-out: Minimum Inhibitory Concentration", "value": 16, "unit": "mg/L"},
      {"measurement": "MIC", "setting": "Pseudomonas aeruginosa; strain X528, read-out: Minimum Inhibitory Concentration", "value": 8, "unit": "mg/L"},
      {"measurement": "MIC", "setting": "Klebsiella sp.; strain KAE, read-out: Minimum Inhibitory Concentration", "value": 16, "unit": "mg/L"},
      {"measurement": "MIC", "setting": "Klebsiella sp.; strain X26, read-out: Minimum Inhibitory Concentration", "value": 0.06, "unit": "mg/L"},
      {"measurement": "MIC", "setting": "[1]; strain EPI1, read-out: Minimum Inhibitory Concentration", "value": 16, "unit": "mg/L"},
      {"measurement": "MIC", "setting": "[1]; strain EPI2, read-out: Minimum Inhibitory Concentration", "value": 64, "unit": "mg/L"},
      {"measurement": "MIC", "setting": "Streptococcus pneumoniae", "value": 0.03, "unit": "mg/L"},
      {"measurement": "MIC", "setting": "[2]", "value": 32, "unit": "mg/L"},
      {"measurement": "MIC", "setting": "Shigella sonnei", "value": 0.125, "unit": "mg/L"},
      {"measurement": "MIC", "setting": "Citrobacter freundii", "value": 32, "unit": "mg/L"},
      {"measurement": "MIC", "setting": "Haemophilus influenzae; Haemophilus influenzae, read-out: Minimum Inhibitory Concentration", "value": 0.125, "unit": "mg/L"},
      {"measurement": "Minimum Inhibitory Concentration", "setting": "Haemophilus influenzae; strain 251, resistant strain", "value": ".125 µg/mL"},
      {"measurement": "MIC", "setting": "Escherichia coli; [8]", "value": 0.125, "unit": "mg/L"},
      {"measurement": "MIC", "setting": "Escherichia coli; strain EC14, read-out: Minimum Inhibitory Concentration", "value": 0.06, "unit": "mg/L"},
      {"measurement": "MIC", "setting": "Escherichia coli; strain N10, read-out: Minimum Inhibitory Concentration", "value": 0.25, "unit": "mg/L"},
      {"measurement": "MIC", "setting": "Streptococcus Group D; strain 9960", "value": 16, "unit": "mg/L"},
      {"measurement": "MIC", "setting": "Streptococcus Group D; strain X66", "value": "> 128", "unit": "mg/L"},
      {"measurement": "MIC", "setting": "Proteus morganii", "value": 0.06, "unit": "mg/L"},
      {"measurement": "MIC", "setting": "Enterobacter aerogenes; strain C32", "value": 0.25, "unit": "mg/L"},
      {"measurement": "MIC", "setting": "Enterobacter aerogenes; strain EB17", "value": 0.25, "unit": "mg/L"},
      {"measurement": "MIC", "setting": "Enterobacter aerogenes; strain X68", "value": 0.06, "unit": "mg/L"},
      {"measurement": "MIC", "setting": "Staphylococcus aureus; [8]", "value": 16, "unit": "mg/L"},
      {"measurement": "MIC", "setting": "Staphylococcus aureus; strain V41, read-out: Minimum Inhibitory Concentration", "value": 8, "unit": "mg/L"},
      {"measurement": "MIC", "setting": "Staphylococcus aureus; strain X1.1, read-out: Minimum Inhibitory Concentration", "value": 4, "unit": "mg/L"},
      {"measurement": "MIC", "setting": "Staphylococcus aureus; strain X400, read-out: Minimum Inhibitory Concentration", "value": "> 128", "unit": "mg/L"},
      {"measurement": "MIC", "setting": "Proteus rettgeri; Providencia rettgeri, read-out: Minimum Inhibitory Concentration", "value": 0.125, "unit": "mg/L"},
      {"measurement": "Minimum Inhibitory Concentration", "setting": "Proteus rettgeri; strain C24", "value": ".125 µg/mL"},
      {"measurement": "MIC", "setting": "Proteus inconstans", "value": 0.125, "unit": "mg/L"},
      {"measurement": "MIC", "setting": "Serratia marcescens; strain SE3, read-out: Minimum Inhibitory Concentration", "value": 1, "unit": "mg/L"},
      {"measurement": "MIC", "setting": "Serratia marcescens; strain X93, read-out: Minimum Inhibitory Concentration", "value": 0.25, "unit": "mg/L"},
      {"measurement": "MIC", "setting": "Salmonella sp.; strain 1335, read-out: Minimum Inhibitory Concentration", "value": 0.25, "unit": "mg/L"},
      {"measurement": "MIC", "setting": "Salmonella sp.; strain X514, read-out: Minimum Inhibitory Concentration", "value": 0.125, "unit": "mg/L"},
      {"measurement": "MIC", "setting": "Streptococcus Group A", "value": 0.06, "unit": "mg/L"},
      {"measurement": "MIC", "setting": "Enterobacter cloacae; strain 265A, read-out: Minimum Inhibitory Concentration", "value": 64, "unit": "mg/L"},
      {"measurement": "MIC", "setting": "Enterobacter cloacae; strain EB5, read-out: Minimum Inhibitory Concentration", "value": 2, "unit": "mg/L"},
      {"measurement": "effectiveness in treatment of meningitis", "setting": "[3]", "value": "effective in the treatment"},
      {"measurement": "levels in the cerebro-spinal fluid", "setting": "[4]", "value": "present in effective levels"},
      {"measurement": "ED50", "setting": "Escherichia coli (EC14)", "value": 0.16, "unit": "mg/kg"},
      {"measurement": "ED50", "setting": "[5]", "value": 0.21, "unit": "mg/kg"},
      {"measurement": "ED50", "setting": "[6]", "value": 1, "unit": "mg/kg"},
      {"measurement": "ED50", "setting": "[7]", "value": 7.6, "unit": "mg/kg"},
      {"measurement": "ED50", "setting": "Proteus vulgaris (PV2S)", "value": 0.12, "unit": "mg/kg"}
    ]}
  ]
}
